According to PMC3805573, “Methylglyoxal Evokes Pain by Stimulating TRPA1” (PLoS ONE, 2013):

Legend:
TRPA1 [1] = assay: Outward TRPA1 currents in absence of Ca2+, effect of DTT; assay type: cell-based; details: MG 1 mM, +60 mV, Ca2+-free
Protocol: (§1) DRG neurons and TRPA1 CHO cells were studied under voltage-clamp conditions using an Axopatch 200B amplifier and pClamp 10.0 software (Molecular Devices, Sunnyvale, CA). Except where stated otherwise, whole cell recordings were performed at a holding potential of –60 mV using an extracellular solution with the composition described above for [Ca^2+]i measurements. Borosilicate glass pipettes (2–5 MΩ, 75–80% series resistance compensation) were filled with (in mM) 140 KCl, 1 CaCl2, 2 MgATP, 10 EGTA, and 10 HEPES buffered to pH 7.4 (KOH). Excised inside-out patches were recorded using a Ca^2+-free solution containing (in mM) 140 NaCl, 5 KCl, 1 MgCl2, 10 HEPES and 1 EGTA, pH 7.4 (NaOH) in the pipettes and perfused with 140 KCl, 2 MgATP, 1 EGTA, and 10 HEPES (pH 7.4). DRG neurons were studied using an intracellular solution containing (in mM) 140 CsCl, 1 CaCl2, 2 MgATP, 10 EGTA and 10 HEPES, pH 7.4 (CsOH). Drugs were applied by local microperfusion with a rapid solution changer (RSC-200, Biologic, Claix, France).
It is possible that MG stimulates TRPA1 through formation of reversible hemithioacetals with cysteine residues other than those examined here, [40]. To investigate this possibility we examined the effect of the reducing agent dithiothreitol (DTT, 2 mM) on outward TRPA1 currents recorded in the absence of Ca^2+ (5 mM BAPTA intracellularly, 1 mM EGTA extracellularly) to avoid Ca^2+-mediated inactivation or desensitization. We used DTT to determine whether disulfide bridge formation or reversible noncovalent interactions contribute to the agonist activity of MG. DTT is expected to rapidly reduce cystine bridges to free thiols, but also to form hemithioacetals with MG, thereby accelerating current decay. Covalent modification of arginine and lysine residues by MG and modification of cysteine residues by AITC are on the other hand resistant to DTT [31]. […] This is consistent with the expected oxidative formation of cystine bridges and their reduction by DTT [4]. The contrast between the stable currents produced by H2O2 and the spontaneously reversible currents evoked by MG highlights the reversible nature of the interaction between MG and TRPA1. […] We also observed that repeated applications of MG and H2O2 evoked reproducible current responses of similar amplitudes, whereas an application of AITC prevented subsequent channel activation by AITC challenges (Fig. 4C-E). We conclude that MG acts through a reversible interaction with TRPA1 and that H2O2 relies on DTT sensitive oxidative modification of TRPA1 protein for its activity. […] In contrast, the covalent modification produced by AITC appears irreversible and renders TRPA1 refractory to subsequent activation.

TRPA1 [2] = assay: Whole cell voltage-clamp, TRPA1 CHO cells; assay type: cell-based; details: MG 0.5 mM (Fig. 1B)
Protocol: as §1

mTRPA1 K712Q = target: T1, mTRPA1 K712Q (Mus musculus, UniProt Q8BLA8, K712Q); assay: [Ca2+]i-responses of mTRPA1 K712Q in CHO cells; assay type: cell-based; details: MG 2 mM
T1 construct: expressed in transfected cells; host or cells: CHO cells
Protocol: Untransfected CHO cells and CHO cells expressing mouse or human TRPA1 were grown in MEM Glutamax or AQ medium supplemented with penicillin (100 U/ml), streptomycin (100 µg/ml), and FCS (10%). Plasmids encoding mutated TRPA1 channels were kindly provided by Dr. Ardem Patapoutian. All media, serum and antibiotics were from Invitrogen (Paisley, UK) or Sigma (Poole, UK).
(§2) Cells were loaded with 2 µM Fura-2 AM (Molecular Probes, Paisley, UK) in the presence of 1 mM probenecid for ∼1 hr. The experiments were performed in a physiological saline solution containing (in mM) 140 NaCl, 5 KCl, 10 glucose, 10 HEPES, 2 CaCl2, and 1 MgCl2, buffered to pH 7.4 with NaOH. Compounds were applied to cells by local continuous microperfusion of solution through a fine tube placed in close proximity of the cells studied. Images of a group of cells were captured every 2 sec using 340 and 380 nm excitation wavelengths with emission measured at 520 nm with a microscope based imaging system (PTI, New Jersey). Analyses of emission intensity ratios at 340 nm/380 nm excitation (R, in individual cells) were performed using the ImageMaster suite of software.

DRG neurons = assay: [Ca2+]i-responses in cultured DRG neurons; assay type: cell-based, mice
Protocol: DRG neurons were prepared from adult male or female mice using methods described previously. Isolated neurons were maintained in MEM AQ (5.6 mM glucose) supplemented with 10% fetal bovine serum, 100 U/ml penicillin, 100 µg/ml streptomycin and 50 ng/ml NGF (Promega, Southampton, UK) for less than 24 hours before experimentation.
as §2

T1 sequence (Q8BLA8 whole entry K712Q): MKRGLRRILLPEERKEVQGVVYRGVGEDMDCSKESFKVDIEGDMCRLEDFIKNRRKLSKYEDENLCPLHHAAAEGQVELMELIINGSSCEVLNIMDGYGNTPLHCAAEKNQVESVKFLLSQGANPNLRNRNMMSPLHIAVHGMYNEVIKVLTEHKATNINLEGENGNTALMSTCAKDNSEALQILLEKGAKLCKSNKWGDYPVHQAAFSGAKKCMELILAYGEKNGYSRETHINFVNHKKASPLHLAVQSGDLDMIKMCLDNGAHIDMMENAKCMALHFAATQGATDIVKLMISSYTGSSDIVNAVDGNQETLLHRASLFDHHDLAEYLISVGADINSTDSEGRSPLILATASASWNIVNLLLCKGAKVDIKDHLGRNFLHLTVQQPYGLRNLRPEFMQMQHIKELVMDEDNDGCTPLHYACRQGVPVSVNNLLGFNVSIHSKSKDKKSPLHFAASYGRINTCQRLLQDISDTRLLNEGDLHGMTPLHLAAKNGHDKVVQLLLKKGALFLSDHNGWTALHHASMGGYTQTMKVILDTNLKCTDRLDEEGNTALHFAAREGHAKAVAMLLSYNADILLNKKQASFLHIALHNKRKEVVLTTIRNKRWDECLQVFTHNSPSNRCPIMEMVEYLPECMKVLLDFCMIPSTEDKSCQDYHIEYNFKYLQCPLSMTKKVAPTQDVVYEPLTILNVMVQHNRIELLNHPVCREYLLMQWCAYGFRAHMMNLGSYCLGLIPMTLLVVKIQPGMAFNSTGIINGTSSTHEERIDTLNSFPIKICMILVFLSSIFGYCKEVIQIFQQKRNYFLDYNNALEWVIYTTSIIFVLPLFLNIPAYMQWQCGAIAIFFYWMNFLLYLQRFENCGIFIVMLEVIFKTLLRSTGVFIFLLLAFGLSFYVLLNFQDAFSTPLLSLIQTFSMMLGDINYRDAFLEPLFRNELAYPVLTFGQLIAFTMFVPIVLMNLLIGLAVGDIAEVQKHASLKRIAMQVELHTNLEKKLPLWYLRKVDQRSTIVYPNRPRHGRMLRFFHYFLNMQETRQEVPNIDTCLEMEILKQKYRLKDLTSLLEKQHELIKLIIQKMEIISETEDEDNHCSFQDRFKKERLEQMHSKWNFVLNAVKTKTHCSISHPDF

Compound: CC(=O)C=O [MG, methylglyoxal]
- effect of DTT (2 mM) on agonist-evoked TRPA1 current (TRPA1 [1]): dramatically accelerated the TRPA1 current decay
- outward TRPA1 current after removal of agonist (TRPA1 [1]): partially decayed with time after removal of MG
- whole cell current (TRPA1 [2]): produced inward currents
- amplitude of [Ca2+]i-responses in mTRPA1 K712Q compared to WT mTRPA1 (mTRPA1 K712Q): significantly reduced
- capsaicin-sensitive DRG neurons with [Ca2+]i-responses (DRG neurons; neurons from Trpa1+/+ mice (240 of 333)): 72%
- DRG neurons with [Ca2+]i-responses (DRG neurons; neurons from Trpa1-/- mice (1 of 322)): 0%
